Laboratory results: US20260014179A1, “OLIGOSACCHARIDE COMPOSITION FOR USE IN THE REDUCTION OF THE LEVEL OF BRANCHED SHORT CHAIN FATTY ACIDS” (priority 2022, published 2026)

Tested on: microbiota present in the faecal samples
Assay: Oligosaccharide distribution (HPAEC-PAD peak areas) during faecal fermentation
Source text: HPAEC-PAD (high performance anion exchange chromatography) equipped with a PA-1 column was used for separation of mono- and oligosaccharides of the different samples. Efforts were made to achieve a separation quality described in van Leeuwen et al., Carbohydrate Research 2016, 425, 48-58. […] The samples as used for GPC were 100-fold diluted with DMSO before injection.
The distribution of oligosaccharides in the mixtures was also monitored over this time period using the method described above in relation to Table 2.

SMILES	Peak areas (in Comp. Ex. 1, 0 h)	Peak areas (in Comp. Ex. 1, 6 h, Donor A)	Peak areas (in Comp. Ex. 1, 6 h, Donor B)	Peak areas (in Comp. Ex. 1, 6 h, Donor C)	Peak areas (in Comp. Ex. 1, 24 h, Donor A)	Peak areas (in Comp. Ex. 1, 24 h, Donor B)	Peak areas (in Comp. Ex. 1, 24 h, Donor C)	Peak areas (in Comp. Ex. 1, 48 h, Donor A)	Peak areas (in Comp. Ex. 1, 48 h, Donor B)	Peak areas (in Comp. Ex. 1, 48 h, Donor C)	Peak areas (in Example 2, 0 h)	Peak areas (in Example 2, 6 h, Donor A)	Peak areas (in Example 2, 6 h, Donor B)	Peak areas (in Example 2, 6 h, Donor C)	Peak areas (in Example 2, 24 h, Donor A)	Peak areas (in Example 2, 24 h, Donor B)	Peak areas (in Example 2, 24 h, Donor C)	Peak areas (in Example 2, 48 h, Donor A)	Peak areas (in Example 2, 48 h, Donor B)	Peak areas (in Example 2, 48 h, Donor C)
O=C[C@H](O)[C@@H](O)[C@@H](O)[C@H](O)CO [Galactose]	0.5	2.4	45.1	0.7	0.0	0.1	0.0	0.0	0.0	0.0	1.3	2.1	47.3	0.8	0.0	0.1	0.0	0.0	0.0	0.0
O=C[C@H](O)[C@@H](O)[C@H](O)[C@H](O)CO [Glucose]	19.5	2.9	34.1	0.2	0.0	0.1	0.0	0.0	0.0	0.0	17.5	2.6	26.9	0.3	0.0	0.0	0.0	0.0	0.0	0.0
OC[C@H]1O[C@@H](O[C@H]2[C@H](O)[C@@H](O)C(O)O[C@@H]2CO)[C@H](O)[C@@H](O)[C@H]1O (stereo partly drawn) [Lactose]	48.4	0.7	1.9	0.4	0.4	0.5	0.4	0.3	0.5	0.3	30.9	0.3	5.3	0.6	0.3	0.4	0.4	0.3	0.5	0.3
